Results reported in US20050197350A1, “Novel quinoline, tetrahydroquinazoline, and pyrimidine derivatives and methods of treatment related to the use thereof” (TAISHO PHARMACEUTICAL CO., LTD., priority 2003, published 2005).

These compounds were tested on MCH receptors (assay: MCH receptor activity class (method not given)). Settings: MCH receptor activity class 1-3 (percent of control at 10^-7 M or IC50).
With CN(C)c1ccnc(N[C@H]2CC[C@@H](NC(=S)NCc3cccc4ccccc34)CC2)n1 [compound 2332] the class was 3 (Class 3 The value of percent of control at 10^−7 M was more than 60% or the value of IC50 was more than 200 nM.). With Cc1cc(Cl)cc(Cl)c1NC(=S)N[C@H]1CC[C@@H](Nc2cc(N(C)C)c3ccccc3n2)CC1 [compound 2301, N-(2,4-dichloro-6-methylphenyl)-N′-(cis-4-{[4-(dimethylamino)quinolin-2-yl]amino}cyclohexyl)thiourea] the class was 1 (Class 1: The value of percent of control at 10^−7 M was less than 40% or the value of IC50 was less than 50 nM.). For Cc1cccc(C(C)(C)C)c1NC(=O)NC[C@H]1CC[C@@H](Nc2nc3c(c(N(C)C)n2)CCCC3)CC1 [compound 2475, N-(2-tert-butyl-6-methylphenyl)-N′-[(cis-4-{[4-(dimethylamino)-5,6,7,8-tetrahydroquinazolin-2-yl]amino}cyclohexyl)methyl]urea], the class was 1 (Class 1: The value of percent of control at 10^−7 M was less than 40% or the value of IC50 was less than 50 nM.). Cc1noc(-c2ccccc2)c1NC(=O)NC[C@H]1CC[C@@H](Nc2cc(N(C)C)c3ccccc3n2)CC1 [compound 2391] was tested, and the class was 3 (Class 3 The value of percent of control at 10^−7 M was more than 60% or the value of IC50 was more than 200 nM.).

Same assay, conditions: MCH receptor; class by percent of control at 10^-7 M or IC50
CN(C)c1nc(N[C@H]2CC[C@@H](NC(=S)Nc3c(Cl)c(Cl)cc(Cl)c3Cl)CC2)nc2c1CCCC2 [compound 2031, N-(cis-4-{[4-(dimethylamino)-5,6,7,8-tetrahydroquinazolin-2-yl]amino}cyelohexyl)-N′-(2,3,5,6-tetrachlorophenyl)thiourea] was tested, and the class was 3 (Class 3 The value of percent of control at 10^−7 M was more than 60% or the value of IC50 was more than 200 nM.). In the case of CCCCCC(=O)N[C@H]1CC[C@@H](Nc2cc(N(C)C)c3ccccc3n2)CC1 [compound 40], the class is reported as 3 (Class 3 The value of percent of control at 10^−7 M was more than 60% or the value of IC50 was more than 200 nM.). For CN(C)c1nc(N[C@H]2CC[C@@H](NC(=S)Nc3ccc(NC(=O)OC(C)(C)C)cc3)CC2)nc2c1CCCC2 [compound 1996], the class was 3 (Class 3 The value of percent of control at 10^−7 M was more than 60% or the value of IC50 was more than 200 nM.). In the case of CN(C)c1cc(N[C@H]2CC[C@@H](NC(=O)c3cccc(Cl)c3)CC2)nc2ccccc12 [compound 24], the class is reported as 1 (Class 1: The value of percent of control at 10^−7 M was less than 40% or the value of IC50 was less than 50 nM.). In the case of CN(C)c1nc(N[C@H]2CC[C@@H](NC(=S)NC(C)(C)C)CC2)nc2c1CCCC2 [compound 1961], the class is reported as 3 (Class 3 The value of percent of control at 10^−7 M was more than 60% or the value of IC50 was more than 200 nM.). CN(C)c1cc(N[C@H]2CC[C@@H](NC(=O)c3cccnc3Sc3ccccc3)CC2)nc2ccccc12 [compound 136] was tested, and the class was 3 (Class 3 The value of percent of control at 10^−7 M was more than 60% or the value of IC50 was more than 200 nM.). In the case of Cc1cccc(C(=O)N[C@H]2CC[C@@H](Nc3cc(N(C)C)c4ccccc4n3)CC2)c1 [compound 50, N-(cis-4-{[4-(dimethylamino)quinolin-2-yl]amino}cyclohexyl)-3-methylbenzamide], the class is reported as 1 (Class 1: The value of percent of control at 10^−7 M was less than 40% or the value of IC50 was less than 50 nM.). CN(C)c1cc(N[C@H]2CC[C@@H](NC(=O)Cc3ccc(Cl)cc3)CC2)nc2ccccc12 [compound 28] was tested, and the class was 3 (Class 3 The value of percent of control at 10^−7 M was more than 60% or the value of IC50 was more than 200 nM.).

Same assay, conditions: activity class 1-3: percent of control at 10^-7 M or IC50
With CN(C)c1cc(N[C@H]2CC[C@@H](CNC(=O)OCc3ccccc3Cl)CC2)nc2ccccc12 [compound 1576] the class was 3 (Class 3 The value of percent of control at 10^−7 M was more than 60% or the value of IC50 was more than 200 nM.). For Cc1cc(NC(=O)N[C@H]2CC[C@@H](Nc3nc4c(c(N(C)C)n3)CCCC4)CC2)c(C(F)(F)F)o1 [compound 1692], the class was 3 (Class 3 The value of percent of control at 10^−7 M was more than 60% or the value of IC50 was more than 200 nM.). CN(C)c1ccnc(N[C@H]2CC[C@@H](NC(=O)Oc3cccc(C(F)(F)F)c3)CC2)n1 [compound 1622] was tested, and the class was 3 (Class 3 The value of percent of control at 10^−7 M was more than 60% or the value of IC50 was more than 200 nM.). In the case of COc1cc(COC(=O)NC2CCC(Nc3cc(N(C)C)c4ccccc4n3)CC2)c([N+](=O)[O-])cc1OC (centres unmarked) [compound 1541, “[4-(4-Dimethylamino-quinolin-2-ylamino)-cyclohexyl]-carbamic acid 4,5-dimethoxy-2-nitro-benzyl ester], the class is reported as 2 (Class 2: The value of percent of control at 10^−7 M was from 40% to 60% or the value of IC′50 was from 50 nM to 200 nM.).

Same assay, conditions: activity class per percent of control at 10^-7 M or IC50
For COc1cc(CN[C@H]2CC[C@@H](Nc3cc(N(C)C)c4ccccc4n3)CC2)cc(OC)c1O [compound 1096], the class was 3 (Class 3 The value of percent of control at 10^−7 M was more than 60% or the value of IC50 was more than 200 nM.). With CN(C)c1nc(N[C@H]2CC[C@@H](NC(=O)c3cccc(C(=O)c4ccccc4)c3)CC2)nc2c1CCCC2 [compound 1009] the class was 3 (Class 3 The value of percent of control at 10^−7 M was more than 60% or the value of IC50 was more than 200 nM.). In the case of CN(C)c1nc(N[C@H]2CC[C@@H](NC(=O)c3scc(S(C)(=O)=O)c3Cl)CC2)nc2c1CCCC2 [compound 1040], the class is reported as 3 (Class 3 The value of percent of control at 10^−7 M was more than 60% or the value of IC50 was more than 200 nM.).

Same assay, conditions: class 1-3 by percent of control at 10^-7 M or IC50
CN(C)c1ccnc(N[C@H]2CC[C@@H](CNC(=O)c3cc(C(C)(C)C)nn3Cc3ccccc3)CC2)n1 [compound 430] was tested, and the class was 3 (Class 3 The value of percent of control at 10^−7 M was more than 60% or the value of IC50 was more than 200 nM.).

Same assay, conditions: class by percent of control at 10^-7 M or IC50
For “(3-{(1S)-2-[(cis-4-([4-(dimethylamino)-5,6,7,8-tetrahydroquinazolin-2-yl]amino}cyclohexyl)amino]-1-methylethyl}phenyl)(phenyl)methanol [compound 1496]”, the class was 3 (Class 3 The value of percent of control at 10^−7 M was more than 60% or the value of IC50 was more than 200 nM.). COc1ccc2[nH]c(C)c(CC(=O)N[C@H]3CC[C@@H](Nc4cc(N(C)C)c5ccccc5n4)CC3)c2c1 [compound 682, N-(cis-4-{[4-(dimethylamino)quinolin-2-yl]amino}cyclohexyl)-2-(5-methoxy-2-methyl-1H-indol-3-yl)acetamide] was tested, and the class was 2 (Class 2: The value of percent of control at 10^−7 M was from 40% to 60% or the value of IC′50 was from 50 nM to 200 nM.). For CN(C)c1ccnc(N[C@H]2CC[C@@H](CNC(=O)c3ccc([N+](=O)[O-])s3)CC2)n1 [compound 939], the class was 3 (Class 3 The value of percent of control at 10^−7 M was more than 60% or the value of IC50 was more than 200 nM.). In the case of CSc1ccc(Cl)c(C(=O)N[C@H]2CC[C@@H](Nc3nccc(N(C)C)n3)CC2)c1 [compound 920], the class is reported as 3 (Class 3 The value of percent of control at 10^−7 M was more than 60% or the value of IC50 was more than 200 nM.). With CCc1cccc(CC)c1NC(=O)N[C@H]1CC[C@@H](Nc2nccc(N(C)C)n2)CC1 [compound 2192] the class was 3 (Class 3 The value of percent of control at 10^−7 M was more than 60% or the value of IC50 was more than 200 nM.). In the case of CN(C)c1ccnc(N[C@H]2CC[C@@H](CNCc3cc(Cl)cc(Br)c3O)CC2)n1 [compound 1283], the class is reported as 3 (Class 3 The value of percent of control at 10^−7 M was more than 60% or the value of IC50 was more than 200 nM.). In the case of CCCN(CCC)C(=O)[C@H](CCC(=O)N[C@H]1CC[C@@H](Nc2nccc(N(C)C)n2)CC1)NC(=O)c1ccccc1 (relative stereo) [compound 870], the class is reported as 2 (Class 2: The value of percent of control at 10^−7 M was from 40% to 60% or the value of IC′50 was from 50 nM to 200 nM.). COc1ccc(F)cc1CNC[C@H]1CC[C@@H](Nc2nc3c(c(N(C)C)n2)CCCC3)CC1 [compound 1415] was tested, and the class was 3 (Class 3 The value of percent of control at 10^−7 M was more than 60% or the value of IC50 was more than 200 nM.). For CN(C)c1cc(N[C@H]2CC[C@@H](NC(=O)Nc3ccc(F)cc3)CC2)nc2ccccc12 [compound 2094], the class was 3 (Class 3 The value of percent of control at 10^−7 M was more than 60% or the value of IC50 was more than 200 nM.). With CN(C)c1nc(N[C@H]2CC[C@@H](NC(=S)Nc3ccc(N4CCOCC4)nc3)CC2)nc2c1CCCC2 [compound 2087] the class was 3 (Class 3 The value of percent of control at 10^−7 M was more than 60% or the value of IC50 was more than 200 nM.). With Cc1cc(F)ccc1NC(=S)N[C@H]1CC[C@@H](Nc2nc3c(c(N(C)C)n2)CCCC3)CC1 [compound 1775] the class was 2 (Class 2: The value of percent of control at 10^−7 M was from 40% to 60% or the value of IC′50 was from 50 nM to 200 nM.). CN(C)c1cc(N[C@H]2CC[C@@H](NCCc3c(-c4ccccc4)[nH]c4ccccc34)CC2)nc2ccccc12 [compound 1459] was tested, and the class was 2 (Class 2: The value of percent of control at 10^−7 M was from 40% to 60% or the value of IC′50 was from 50 nM to 200 nM.).

Same assay, conditions: class by percent of control at 10^−7 M or IC50
With Cc1cc(N(C)C)nc(N[C@H]2CC[C@@H](NC(=O)c3cccc(F)c3)CC2)n1 [compound 2953, N-(cis-4-{[4-(dimethylamino)-6-methylpyrimidin-2-yl]amino}cyclohexyl)-3-fluorobenzamide] the class was 2 (Class 2: The value of percent of control at 10^−7 M was from 40% to 60% or the value of IC′50 was from 50 nM to 200 nM.). Cc1nc(N[C@H]2CC[C@@H](NC(=O)c3ccc(Cl)c(Cl)c3)CC2)nc(N(C)C)c1C [compound 2842, 3,4-dichloro-N-(cis-4-{[4-(dimethylamino)-5,6-dimethylpyrimidin-2-yl]amino}cyclohexyl)benzamide] was tested, and the class was 1 (Class 1: The value of percent of control at 10^−7 M was less than 40% or the value of IC50 was less than 50 nM.). In the case of COc1cccc(C(=O)N[C@H]2CC[C@@H](Nc3nc(C)cc(N(C)C)n3)CC2)c1 [compound 2984, N-(cis-4-{[4-(dimethylamino)-6-methylpyrimidin-2-yl]amino}cyclohexyl)-3-methoxybenzamide], the class is reported as 1 (Class 1: The value of percent of control at 10^−7 M was less than 40% or the value of IC50 was less than 50 nM.).
